Reference: patent US10537567B2, “Kinase inhibitors for treatment of disease” (BioAxone BioSciences, Inc., priority 2017, dated 2020)

Tests used:
[1] = Hyperemia / ocular tolerability testing in Dutch-Belted rabbits; format: in vivo, Dutch-Belted rabbits (Oryctolagus cuniculus)
Text: To test for hyperemia, the rabbit is a standard species used in ocular tolerability studies based upon historical data and FDA requirements. For this study, four (4) Dutch-Belted rabbits (Oryctolagus cuniculus) were manually restrained to facilitate topical dosing followed by ocular examinations, and IOP measurements. Prior to placement on study, each animal underwent an ophthalmic examination (slit-lamp biomicroscopy, indirect ophthalmoscopy). Ocular findings were scored according to a modified McDonald-Shadduck Scoring System. […] Test and control articles were dosed in the morning at approximately the same time every day (˜8 am±2 hours). Animals were observed within their cages once daily throughout the study period. […] Any abnormal observation was reported to the Study Director. Ocular findings were scored according to a modified McDonald-Shadduck Scoring System. The scoring system 0=normal and numbers of 1-4 score mild to severe.
(Table 3). Thus, these ROCK inhibitors have promise for therapeutic use in treating eye pathologies.

Abl = Abl (Homo sapiens, UniProt P00519); experiment: Second kinome screen; format: binding
Text: In the kinome screen BA-2017 had fewer off-target hits (Table 1) than BA-1049. […] An interesting hit from the kinome screen was on Abl (Table 1), an oncogene that also regulates many cellular activities, including vascular leakage.

[2] = Day 3, 1% topical once daily, modified McDonald-Shadduck score, 0=normal, 1-4 mild to severe, cells = rabbit 1/2, OD/OS

Sequence of Abl (P00519 whole entry): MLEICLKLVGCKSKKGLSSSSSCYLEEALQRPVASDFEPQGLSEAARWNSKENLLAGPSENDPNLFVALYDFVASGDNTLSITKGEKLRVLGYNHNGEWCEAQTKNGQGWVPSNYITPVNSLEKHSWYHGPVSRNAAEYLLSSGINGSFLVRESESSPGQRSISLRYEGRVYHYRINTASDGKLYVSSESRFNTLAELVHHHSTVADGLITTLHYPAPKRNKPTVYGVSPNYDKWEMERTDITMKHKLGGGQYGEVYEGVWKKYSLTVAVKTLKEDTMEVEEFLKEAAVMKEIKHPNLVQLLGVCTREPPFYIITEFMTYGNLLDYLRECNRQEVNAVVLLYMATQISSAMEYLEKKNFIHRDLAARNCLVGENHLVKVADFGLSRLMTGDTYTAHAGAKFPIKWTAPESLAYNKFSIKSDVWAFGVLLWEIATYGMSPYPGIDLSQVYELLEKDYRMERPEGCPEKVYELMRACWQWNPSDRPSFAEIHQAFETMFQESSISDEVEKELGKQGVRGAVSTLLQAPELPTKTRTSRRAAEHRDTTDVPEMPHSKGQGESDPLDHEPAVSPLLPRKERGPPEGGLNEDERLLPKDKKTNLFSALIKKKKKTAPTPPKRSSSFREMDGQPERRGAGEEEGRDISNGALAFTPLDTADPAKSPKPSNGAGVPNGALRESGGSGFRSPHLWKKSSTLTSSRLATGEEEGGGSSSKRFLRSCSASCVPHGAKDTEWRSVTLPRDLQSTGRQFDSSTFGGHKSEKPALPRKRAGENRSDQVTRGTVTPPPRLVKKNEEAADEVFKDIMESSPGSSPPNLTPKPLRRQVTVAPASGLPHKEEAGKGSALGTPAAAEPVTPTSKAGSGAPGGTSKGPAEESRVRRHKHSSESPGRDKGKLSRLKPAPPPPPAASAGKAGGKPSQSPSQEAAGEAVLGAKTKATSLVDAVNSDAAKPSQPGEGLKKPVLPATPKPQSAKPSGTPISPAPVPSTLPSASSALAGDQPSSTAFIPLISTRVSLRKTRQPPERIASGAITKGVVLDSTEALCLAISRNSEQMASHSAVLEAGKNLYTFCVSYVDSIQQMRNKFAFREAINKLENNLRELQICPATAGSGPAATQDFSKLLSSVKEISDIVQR

Question: With `C[C@H](N)C1CCN(S(=O)(=O)c2cccc3cnccc23)CC1` [BA-1076] as the molecule, how does the “Aqueous Flare” value [1, 2] read?
Answer: 0

Question: What about the “Cellular Flare” value [1, 2] of the same molecule?
Answer: 0

Question: What about the “Conjunctival Congestion” value [1, 2] of the same molecule?
Answer: 0

Question: And the “Conjunctival Discharge” value [1, 2]?
Answer: 0

Question: What about the “Conjunctival Swelling” value [1, 2] of the same molecule?
Answer: 0

Question: And the Cornea [1, 2]?
Answer: 0

Question: What about the “Iris Involvement” value [1, 2] of the same molecule?
Answer: 0

Question: What about the Pannus [1, 2] of the same molecule?
Answer: 0

Question: And the “Pupillary Response” value [1, 2]?
Answer: 0

Question: What about the “Surface Area of Cornea Involvement” value [1, 2] of the same molecule?
Answer: 0

Question: And the “Hyperemia / adverse ocular findings” value ([1]; daily repeat topical dosing, 1%, three days)?
Answer: did not cause hyperemia

Question: And the “Binding to Abl” value (Abl)?
Answer: a second kinome screen did not confirm significant binding of BA-1076 to Abl
